# Where “and” joins values, the source holds several entries; their conditions need not be identical. Equal values may be shown once. Read-outs that look alike come from different tables or passages of the source.
# Legend:
# 3D7 parasites [1] = settings: cited from earlier work
# [2] = test system: MMV007839-selected culture A (PfFNT Gly107Ser); experiment: Parasite proliferation assay, MMV007839-selected culture A; assay type: cell-based, Plasmodium falciparum; settings: MMV007839-selected culture A; mean ± SEM; read-out: IC50 value, growth inhibition
# Method: Parasite proliferation was measured in 96-well plates using a fluorescent DNA-intercalating dye. The assays were initiated with erythrocytes infected with predominantly ring-stage parasites, and the starting parasitaemia was 0.5–1% and the haematocrit was 1%.
# For MMV007839-selected culture A, the drug concentration was increased by 5 nM increments on Day 18, Day 21, and every two days thereafter. […] The cultures were provided with fresh medium and blood and diluted to reduce the parasitaemia as needed.
# [3] = ref [36]; cited from earlier work
# Dd2 parent parasites = experiment: Parasite proliferation assay, Dd2 parent; assay type: cell-based, Plasmodium falciparum; settings: Dd2 parent; mean ± SEM; read-out: IC50 value, growth inhibition
# Method: Parasite proliferation was measured in 96-well plates using a fluorescent DNA-intercalating dye [45]. The assays were initiated with erythrocytes infected with predominantly ring-stage parasites, and the starting parasitaemia was 0.5–1% and the haematocrit was 1%.
# [4] = test system: erythrocytes infected with 3D7 trophozoites; assay type: cell-based, Plasmodium falciparum; settings: 1 μM, within 10 min; mean ± SEM, n = 3
# Source text: (§1) Fig 6 The effect of MMV007839 on the volume of parasites and parasitised erythrocytes. […] The data are expressed as a percentage volume increase relative to the starting volume, which for isolated parasites (A) ranged from 35 fL to 46 fL in the individual experiments, and for intact infected erythrocytes (B) ranged from 73 fL to 79 fL. In both cases the data shown are the mean ± SEM from three independent experiments performed on different days. For each condition, the (pre-normalised) volume data for each time point greater than 0 was tested for statistical significance compared to the time zero data for that condition; **P < 0.01, ***P < 0.001.
# (§2) The volume of saponin-isolated 3D7 trophozoites and of erythrocytes infected with 3D7 trophozoites was measured using a Beckman Coulter Multisizer 4 fitted with a 100 μm ‘aperture tube’. […] The electrolyte solution within the aperture tube was the same as the Experimental Saline Solution except that it lacked glucose. For experiments on infected erythrocytes, the infected cells were separated from uninfected erythrocytes using a Miltenyi Biotec VarioMACS Magnet and the cells were maintained at 37°C in bicarbonate-free RPMI supplemented with 25 mM HEPES, additional glucose (11 mM) and 0.2 mM hypoxanthine, and pH-adjusted to 7.40. For these measurements the electrolyte solution within the aperture tube differed only from this medium in that it was not supplemented with hypoxanthine or additional glucose. For each measurement of cell volume, approximately 20,000 pulses (each corresponding to the passage of a single cell through the aperture) were recorded. The median volume of the cells within each sample was determined by fitting a log Gaussian distribution curve to the population data.
# [5] = test system: saponin-isolated 3D7 P. falciparum trophozoites; assay type: cell-based, Plasmodium falciparum; settings: 1 μM, within 10 min; mean ± SEM, n = 3
# Source text: as §1, §2
# [6] = test system: PfCRT (from the chloroquine-resistant Dd2 strain); experiment: [3H]chloroquine uptake by Xenopus oocytes expressing PfCRT; assay type: cell-based, Plasmodium falciparum; settings: 1 μM and 4 μM; pH 5.5
# Source text: (PfCRT; from the chloroquine-resistant Dd2 strain) and on [^3H]hypoxanthine transport by oocytes expressing the P. falciparum equilibrative nucleoside/nucleobase transporter PfENT1 [27, 28].
# The oocyte expression vectors containing PfFNT, PfENT1 and PfCRT were made previously. The Gly107Ser mutant form of PfFNT was generated through site-directed mutagenesis of the oocyte expression vector containing wild-type (3D7) PfFNT using primers 9 and 10 (S2 Table). Oocytes were harvested from adult female Xenopus laevis frogs and prepared as described previously. cRNA was made using the mMessage mMachine T7 transcription kit and the MEGAclear kit (Ambion) and microinjected into oocytes as outlined elsewhere. […] The uptake of radiolabelled substrates was measured 2–5 days post-injection at 27.5°C in ND96 buffer (containing 96 mM NaCl, 2 mM KCl, 1 mM MgCl2, 1.8 mM CaCl2, 10 mM MES and 10 mM Tris-base; pH-adjusted to the value specified in the relevant Figure legends). […] The oocytes were then transferred to separate wells of a 96-well plate, lysed with 10% SDS, and the radioactivity measured as described previously.
# The data are averaged from four to five independent experiments (performed using oocytes from different frogs) and are shown + SEM. In B, the uptake of [^3H]hypoxanthine (0.36 μM) was measured over 30 min at pH 6.0. […]
# native PfFNT = target: T1, native PfFNT (Plasmodium falciparum, UniProt O77389); assay type: cell-based; settings: native PfFNT in Xenopus oocytes; pH 6.4, 27.5°C, 10 min; mean ± SEM, n = 4; read-out: IC50, inhibition of PfFNT-mediated L-[14C]lactate transport
# T1 construct: expressed in transfected cells; host or cells: Xenopus laevis oocytes (cRNA microinjected, 30 ng)
# T1 sequence (O77389 whole entry): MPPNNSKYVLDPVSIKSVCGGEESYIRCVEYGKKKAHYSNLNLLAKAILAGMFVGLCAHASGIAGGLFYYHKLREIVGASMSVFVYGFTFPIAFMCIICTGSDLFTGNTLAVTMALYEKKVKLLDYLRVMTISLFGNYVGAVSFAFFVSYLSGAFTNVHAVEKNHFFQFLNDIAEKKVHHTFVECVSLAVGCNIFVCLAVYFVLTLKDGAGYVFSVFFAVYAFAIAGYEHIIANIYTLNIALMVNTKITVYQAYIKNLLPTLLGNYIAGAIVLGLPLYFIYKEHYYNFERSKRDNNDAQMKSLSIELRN
# Method: The PfFNT-mediated uptake of L-[^14C]lactate by oocytes expressing native PfFNT (black symbols) or oocytes expressing PfFNT^Gly107Ser (white symbols) was measured in the presence of a range of different concentrations of MMV007839 (A) and MMV000972 (B). […] To enable a visual comparison between the native PfFNT and PfFNT^Gly107Ser datasets, only part of the concentration range used for the latter is shown in the main panels. The insets show the data obtained for PfFNT^Gly107Ser over the full concentration range tested. In all cases, the data are averaged from four independent experiments (using oocytes from different frogs) and are shown ± SEM. The uptake was measured at 27.5°C over 10 min at pH 6.4 using 2.7 μM L-[^14C]lactate and 600 μM unlabelled L-lactate.
# The oocyte expression vectors containing PfFNT, PfENT1 and PfCRT were made previously. […] The uptake of radiolabelled substrates was measured 2–5 days post-injection at 27.5°C in ND96 buffer (containing 96 mM NaCl, 2 mM KCl, 1 mM MgCl2, 1.8 mM CaCl2, 10 mM MES and 10 mM Tris-base; pH-adjusted to the value specified in the relevant Figure legends). […] The oocytes were then transferred to separate wells of a 96-well plate, lysed with 10% SDS, and the radioactivity measured as described previously.
# [7] = test system: isolated 3D7 P. falciparum trophozoites; experiment: L-[14C]lactate uptake by isolated 3D7 trophozoites; settings: pH 6.1, 4°C, 20 s
# 3D7 parasites [8] = experiment: Parasite viability after timed exposure and washout (parasitaemia on Day 3); settings: 6 μM; for Effect on parasite viability: parasitaemia three days later
structure (smiles),measurement,setting,value
COc1ccc2c(c1)OC(O)(C(F)(F)C(F)(F)F)CC2=O (stereo not shown) [MMV007839],IC50,"3D7 parasites [1]; ref [1] Van Voorhis et al. 2016, read-out: IC50 for killing of 3D7 parasites",280 nM
same,IC50,"3D7 parasites [1]; ref http://www.mmv.org/research-development/malaria-box-supporting-information, read-out: IC50 against 3D7 parasites, other groups",283 to 442 nM
same,IC50,[2],35800 ± 2700 nM
same,Toxicity in Malaria Box toxicity testing,[3],display toxicity in some assays
same,IC50,Dd2 parent parasites,140 ± 20 nM
same,Volume increase of erythrocytes infected with 3D7 trophozoites,[4],5.4 ± 1.0 fL
same,Volume increase of erythrocytes infected with 3D7 trophozoites relative to starting volume,[4],7.2 ± 1.3%
same,Volume increase of isolated parasites,[5],5.1 ± 0.8 fL
same,Volume increase of isolated parasites relative to starting volume,[5],13.1 ± 2.8%
same,Effect on transport of [3H]chloroquine via PfCRT,[6],not inhibiting
same,IC50,native PfFNT,22.5 nM and 23 nM
same,Inhibition of L-[14C]lactate influx,[7]; 0.5 μM,inhibited L-[^14C]lactate influx to a similar degree
same,Inhibition of L-[14C]lactate uptake,[7]; 2 μM,complete inhibition
same,Effect on parasite viability,3D7 parasites [8]; 1 h exposure,did not significantly affect
same,Effect on parasite viability,3D7 parasites [8]; 3 h exposure,did not significantly affect
same,"Parasitaemia three days after exposure, of control levels","3D7 parasites [8]; 6 h exposure, mean ± SEM, n = 3",49 ± 7%
